From ChEMBL document CHEMBL1143322, “Probing UDP-galactopyranose mutase binding pocket: a dramatic effect on substitution of the 6-position of UDP-galactofuranose” (Bioorg Med Chem Lett, 2009) come the findings set out here.

In general, Km refers to the substrate concentration at which the rate is half of its maximum. For orientation: kcat means the maximal rate divided by the concentration of active sites. For orientation: inhibition means the change of the read-out against control, counted positive when it falls. One may read the Kd as the concentration at which binding is half-saturated.

For test [1], the system named is Escherichia coli. The test can be described thus: Ratio of Kcat to Km of Escherichia coli UDP-galactopyranose mutase. Details: unit not given here.
The subject of test [2] is Escherichia coli. Nature of the test: Activity of Escherichia coli UDP-galactopyranose mutase by HPLC.
The test system of test [3] is Escherichia coli. Nature of the test: Inhibition of Escherichia coli UDP-galactopyranose mutase assessed as inhibition of conversion to UDP-galactopyranose. The settings on record: concentration not given here.
Test [4] in a line: Binding affinity to Escherichia coli UDP-galactopyranose mutase.

For the compound `O=c1ccn([C@@H]2O[C@H](COP(=O)(O)OP(=O)(O)O[C@H]3O[C@@H]([C@@H](O)CO)[C@H](O)[C@H]3O)[C@@H](O)[C@H]2O)c(=O)[nH]1`, the kcat/Km in the test with Escherichia coli [1] is 1.23. In the test with Escherichia coli [2], the Michaelis constant (Km) turned out to be 22 µM and the catalytic constant (kcat) was 27 s⁻¹.

Take `O=c1ccn([C@@H]2O[C@H](COP(=O)(O)OP(=O)(O)O[C@H]3O[C@@H](CO)[C@H](O)[C@H]3O)[C@@H](O)[C@H]2O)c(=O)[nH]1`: the kcat/Km in the test with Escherichia coli [1] came out at 0.02. Moreover, in the test with Escherichia coli [2], the Km amounted to 600 µM and the kcat was 12 s⁻¹.

With `O=c1ccn([C@@H]2O[C@H](COP(=O)(O)OP(=O)(O)O[C@H]3O[C@@H]([C@@H](O)CO)[C@H](F)[C@H]3O)[C@@H](O)[C@H]2O)c(=O)[nH]1`, the kcat/Km with Escherichia coli [1] turned out to be 0.0054. In the test with Escherichia coli [2], the Km was 861 µM and the kcat was 5.7 s⁻¹.

On to `O=c1ccn([C@@H]2O[C@H](COP(=O)(O)OP(=O)(O)O[C@H]3O[C@@H]([C@@H](O)CO)[C@H](O)[C@H]3F)[C@@H](O)[C@H]2O)c(=O)[nH]1`, for which the kcat/Km in the test on Escherichia coli [1] stood at 0.00041. In the test on Escherichia coli [2], the Km stood at 65 µM and the catalytic constant (kcat) was found to be 0.033 s⁻¹.

Regarding `O=c1ccn([C@@H]2O[C@H](COP(=O)(O)OP(=O)(O)O[C@H]3O[C@@H]([C@@H](O)CF)[C@H](O)[C@H]3O)[C@@H](O)[C@H]2O)c(=O)[nH]1`, the kcat/Km in the test with Escherichia coli [1] came out at 0.00034. In the test with Escherichia coli [2], the Km was determined as 24000 µM and the kcat stood at 7.4 s⁻¹. Moreover, the inhibition in the test with Escherichia coli [3] was found to be 20%.

For the compound `O=c1ccn([C@@H]2O[C@H](COP(=O)(O)OP(=O)(O)O)[C@@H](O)[C@H]2O)c(=O)[nH]1` [URIDINE_DIPHOSPHATE], in test [4], the affinity, expressed as Kd, was 14 µM. For the same compound, in the test on Escherichia coli [3], the inhibition was found to be 22%.
